Among the test systems are PC-3 prostate; LXFL 529 NSCLC; DMS 114 small cell lung; M19-MEL melanoma; SNB-78 CNS; HOP-18 NSCLC; DLD-1 colon; MDA-N; RXF-631 renal.
Holding throughout (experiment): DTP human tumour cell line panel, 48 h

SMILES strings stand for the structures. Several values for one entry are separate records, joined by “and”; a condition that tells them apart may be missing. Identical values can stand only once.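 Protocol summary: plate cells (96-well), add compound at 5 concentrations, incubate 48 h, interpolate endpoints linearly. Here, GI50 denotes the concentration required for 50% inhibition of growth. TGI: concentration producing complete growth inhibition.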

As to `O=C1OC(=O)C(c2c[nH]c3ccccc23)=C1c1c[nH]c2ccccc12`, in the test on PC-3 prostate, the GI50 (in general, the concentration that inhibits growth by half) was greater than 18 µM and the TGI (as a rule, the concentration at which net growth stops) is greater than 25 µM.
As to `COC(=O)c1csnn1`, the TGI in the test with LXFL 529 NSCLC, in the test on DMS 114 small cell lung and in the test on M19-MEL melanoma was greater than 100 µM throughout.
Regarding `Cc1ccc2c(ccc3c[n+]4c5ccccc5ccc4n32)c1`, in the test with PC-3 prostate, the GI50 is 0.946 µM and the TGI worked out at 10.4 µM.
For the molecule `O=C1c2ccccc2-c2c1c1ccccc1c(=O)n2CCCNCCCNCCCn1c2c(c3ccccc3c1=O)C(=O)c1ccccc1-2`, in the test on PC-3 prostate, the GI50 is 0.0397 µM and the TGI came out at 0.142 µM.
For `COc1ccc(N2C(C)=C(C#N)C34C(=O)N(c5ccccc5)C(=O)C3=C(O)C=CC24O)cc1` (centres undefined), in that order: 17.1 µM and 62.5 µM.
Take `CC(C)NC[C@@H](C(=O)N1CCN(c2ncnc3c2[C@H](C)C[C@H]3O)CC1)c1ccc(Cl)cc1`: in the test on PC-3 prostate, the GI50 is 0.566 µM and 0.887 µM; the TGI was greater than 100 µM.
`COc1cccc(NC(=O)CC(=O)N2N=C(N(CCC#N)c3ccc(Cl)cc3)CC2c2ccccc2)c1` (centres undefined): the TGI in the test with SNB-78 CNS, with LXFL 529 NSCLC, in the test on HOP-18 NSCLC, in the test with DLD-1 colon, in the test with DMS 114 small cell lung and in the test on M19-MEL melanoma was greater than 100 µM each time.
As for `COc1nc(NC2OCC(OC(C)=O)C(OC(C)=O)C2OC(C)=O)c(N=CC=Nc2c(NC3OCC(OC(C)=O)C(OC(C)=O)C3OC(C)=O)nc(OC)n(C)c2=O)c(=O)n1C` (centres undefined), the concentration for total growth inhibition (TGI) in the test with SNB-78 CNS, with LXFL 529 NSCLC, in the test with HOP-18 NSCLC, in the test on DLD-1 colon and in the test with M19-MEL melanoma was greater than 100 µM throughout.
With `Cc1c(C(=O)/C=C/c2csc3ccccc23)[n+](=O)c2ccccc2n1[O-]`, in the test with PC-3 prostate, the GI50 was 1.71 µM and the TGI was determined as 4.3 µM.
For `C[C@H](Nc1ncnc2nc[nH]c12)c1cc2cccc(Cl)c2c(=O)n1-c1ccccc1`, in that order: 2.39 µM and greater than 100 µM.
As to `O=C(c1ccccc1)C1N=NCC1c1ccc([N+](=O)[O-])cc1` (centres undefined), the TGI in the test on MDA-N and with PC-3 prostate was greater than 100 µM each time.
Turning to `COC1(C(=O)N[C@@H](C)c2ccc(-n3cc(F)cn3)nc2)CCC(c2nc(C)cc(Nc3cc(C)[nH]n3)n2)CC1` (some centres undefined), in the test with PC-3 prostate, the GI50 was 3.66 µM and the TGI was found to be 32.7 µM.
For the molecule `CNC(=O)c1cncc(/C=C/c2ccccc2C)c1`, in the test on PC-3 prostate, the GI50 is greater than 25 µM and the TGI is greater than 25 µM.
Turning to `O=CNc1c(Cl)cc2c(c1Cl)Cc1cc([N+](=O)[O-])ccc1-2`, in the test on PC-3 prostate, the GI50 was 8.06 µM and the TGI was greater than 100 µM.
Regarding `C[N+](C)(C)CC(=O)N/N=C(/Cc1nc2c3c(ccc2[nH]c1=O)C(=O)c1ccccc1C3=O)C(=O)Nc1ccc(Cl)c(Cl)c1`, the total growth inhibition concentration (TGI) in the test on DLD-1 colon, in the test on DMS 114 small cell lung, in the test with M19-MEL melanoma and in the test with RXF-631 renal was greater than 100 µM each time.
Take `O=C(Cn1ccc(=O)[nH]c1=O)Nc1ccc(C(=O)O)c(O)c1`: the TGI in the test with MDA-N and in the test on PC-3 prostate was greater than 100 µM each time.
On to `COc1ccccc1NC(=O)CC(=O)N1N=C(C)C(N=Nc2ccc(S(N)(=O)=O)cc2)C1=O` (centres undefined), for which the TGI with SNB-78 CNS, in the test on LXFL 529 NSCLC, in the test with HOP-18 NSCLC, in the test with DLD-1 colon, with DMS 114 small cell lung and with M19-MEL melanoma was greater than 100 µM throughout.
As to `CN(CCCN)CCCNc1nc2ccccc2c2[nH]c3ccccc3c12`, in the test with PC-3 prostate, the GI50 is 0.342 µM and the TGI worked out at 1.28 µM.
For `CCN(CC)c1ccc(C(=C2C=CC(=[N+](CC)Cc3cccc(S(=O)(=O)O)c3)C=C2)c2ccc(N(CC)Cc3cccc(S(=O)(=O)O)c3)cc2)cc1`, in that order: 6.87 µM and greater than 66.3 µM.
As for `C1CCSCCCCSCCCCSCCCCSC1`, the TGI with MDA-N and in the test with PC-3 prostate was greater than 100 µM throughout.
For `C=CCc1c2c(c(OC)c3ccoc13)C(=O)/C(=C/c1ccccc1OC)O2`, in the test with PC-3 prostate, the GI50 was 5.25 µM and the TGI was greater than 100 µM.
For `CCN1C(=O)N(CC)C2C1NN=c1s/c(=C\c3cccnc3)c(=O)n12` (centres undefined), in that order: 0.451 µM and greater than 100 µM.
For `CN1CCN(CCc2cccc(C(=O)c3cnn(-c4ccc(F)cc4)c3N)c2)CC1`, in that order: greater than 25 µM and greater than 25 µM.
For `CCCCCn1c(=N)n(CC(O)COc2cccc(C)c2)c2ccccc21` (centres undefined), in that order: 4 µM and 16.3 µM.
`COc1ccc(N2C(=O)c3c4c(c5c([nH]c6ncccc65)c3C2=O)CCC(C(C)(C)C)C4)cc1` (centres undefined): the total growth inhibition concentration (TGI) in the test on MDA-N and with PC-3 prostate was greater than 100 µM each time.
For the molecule `COc1cc(/C=C2\C(=O)N(C(=O)Cc3ccccc3)N=C2C)ccc1O`, the TGI with SNB-78 CNS, in the test on HOP-18 NSCLC, with DLD-1 colon, in the test on DMS 114 small cell lung and in the test on M19-MEL melanoma was greater than 100 µM throughout.
On to `COc1cc(Cl)cc(-c2nn(C(=O)NCCN3CCOCC3)cc2-c2ccncc2)c1`, for which, in the test with PC-3 prostate, the GI50 was 4.24 µM and the TGI is greater than 100 µM.
Consider `N#CC(C(=O)/C(=N/NC(=O)c1ccccc1O)C(C#N)c1ccc(Cl)cc1)c1ccc(Cl)cc1` (centres undefined), for which the concentration for total growth inhibition (TGI) in the test on SNB-78 CNS is greater than 100 µM; in the test with LXFL 529 NSCLC, 25.1 µM; in the test on HOP-18 NSCLC, 23.6 µM; in the test with DLD-1 colon it was 33 µM; with DMS 114 small cell lung, 69.7 µM; in the test on M19-MEL melanoma, 55.3 µM.
Take `CN(C)/C=C/c1nnc([N+](=O)[O-])s1`: the TGI in the test with MDA-N is 17.4 µM; in the test with PC-3 prostate it was 22 µM.
With `COC(=O)[C@H](Cc1cn(C)cn1)NC(=O)[C@H](Cc1c[nH]c2ccccc12)NC(=O)Nc1cc(C(F)(F)F)cc(C(F)(F)F)c1`, in the test with PC-3 prostate, the GI50 is greater than 10 µM and the TGI was greater than 10 µM.
As to `Cc1ccc(C(=O)O/N=C2/CCC/C2=C\c2ccccc2)cc1`, the TGI in the test on SNB-78 CNS, in the test with LXFL 529 NSCLC, in the test on HOP-18 NSCLC, in the test with DLD-1 colon, in the test with DMS 114 small cell lung and with M19-MEL melanoma was greater than 100 µM in each case.
On to `N#Cc1cnc2cc(OC[C@H](O)CO)c(NC(=O)CC3CSSC3)cc2c1Nc1ccc(OCc2cccc(F)c2)c(Cl)c1`, for which, in the test with PC-3 prostate, the GI50 was 0.162 µM and the TGI is 0.451 µM.
